In brackets after ≈: the same amount, converted by molar mass. Where two headings read alike, the source gives them in different places.
Tests used:
[1] = system: Dunkin Hartley guinea pigs, ATP-citric acid induced cough; assay: ATP-citric acid cough model; type: in vivo, guinea pig
Method: Male Dunkin Hartley guinea pigs (300-400 g) were placed in a whole-body volume scanning box for 3 to 5 minutes, and then subjected to ATP atomization for 2 minutes, with an interval of 3 minutes, followed by citric acid atomization for 5 minutes, and all atomization rates were about 300 μL/min. From citrate acid atomization, cough times and cough latency of animals within 10 min were recorded. During the 10-minute observation period, manual counting of coughs was required, and the number of coughs was judged according to the guinea pig's coughing posture, such as abdominal twitching, mouth opening, head down hooking, etc., as well as the sound of coughing, the number of coughs in the first 10 minutes were recorded, and the cough incubation period of guinea pigs was also recorded.
Animals were divided into vehicle group, dextromethorphan (63 mg/kg) positive group, AF-219 (30 mg/kg) positive group and compound 172 (3, 10, 30 mg/kg) administration group of Embodiment. All compounds were administered orally, except dextromethorphan, which was administered 40 minutes before ATP-citric acid exposure, and the rest compounds were […].

[2] = Pharmacokinetics, crystalline form I versus crystalline form V; type: in vivo, Beagle dog; conditions: 10 mg/kg po, fasting, male dogs, 0.5% CMC-Na suspension, plasma
Method: Beagle dog (general grade, Beijing Masi Biotechnology Co., Ltd.) was given compound A by single oral gavage to study the pharmacokinetics of the compound in plasma. The test drug (100 mg/kg dosage, 5 mL/kg administration volume) was given by gavage, and samples were collected at 10 minutes, 30 minutes, 1 hour, 2 hours, 4 hours, 6 hours, 8 hours, 10 hours, 24 hours and 48 hours after administration: peripheral venipuncture was performed, and about 1.0 mL whole blood was collected from each animal at every time point, and blood samples were collected. Within 60 minutes after blood collection, 0.2 mL of whole blood was separated into a cryopreservation tube, and deionized water was added at a ratio of 1:1, which was mixed upside down and then frozen. The remaining samples were centrifuged at 2,000 g at 2 to 8° C. for 10 min to obtain plasma samples, and the hemolysis of each sample was recorded, and the influence on detection was evaluated, and then the color of plasma was observed and recorded on the blood collection table (“−” means no hemolysis, “+” means pink supernatant and “++” means red supernatant).
The concentration of compound A in plasma was determined by LC-MS/MS method (Non-GLP). The pharmacokinetic parameters were calculated by WinNonlin (Phoenix™, version 8.1) or other similar software. If applicable plasma drug concentration-time data are available, the following pharmacokinetic parameters are calculated: CL (clearance), Vss (steady-state apparent volume of distribution), T1/2 (elimination half-life), Cmax (peak concentration), Tmax (peak time), AUC (area under the concentration-time curve), MRT (mean residence time). Pharmacokinetic data were described by descriptive statistics, such as mean, standard deviation and sample size.
Comparison of crystalline form and crystalline form V is the same for 3 dogs (male), 10 mg/kg po, fasting, 0.5% CMC-Na stirring for 3 hours, and then administration (suspension), and the data obtained are as shown in Table 7.

[3] = Competitive slurrying experiment of crystalline forms I and V; type: physicochemical; conditions: acetone, ethanol, room temperature and 60° C., three days
Method: Competitive slurrying experiment was carried out: the same amount of crystalline forms I and V were weighed and mixed evenly, then XRPD was tested, and the results were used as T0 of competitive slurrying experiment. The mixture was slurried in acetone, ethanol and water at room temperature and 60° C. Three days later, solid samples were obtained by filtration, and. XRPD was tested.

[4] = Solid-state crystal transformation between crystalline forms I and V; type: physicochemical; conditions: mixture of forms I and V, oven at 60° C. and room temperature dryer, one week
[5] = Physical and chemical stability (stability boxes, XRPD and HPLC); type: physicochemical; conditions: for Purity -7 days (peak area %) / XRPD: 7 days
Method: About 10 mg of crystalline forms I, III and V were placed in the stability boxes at 40° C./75% RH (open) and 60° C. (covered) for seven days, and some samples were taken out for XRPD and HPLC tests at 0 and 7 days, respectively, to investigate their physical and chemical stability.

[6] = Dynamic vapor sorption (DVS) hygroscopicity; type: physicochemical
Method: The solid was analyzed by DVS using IGA sorp dynamic vapor sorption instrument. • Temperature: 25° C. • Gas flow: 250 mL/min. • Scan cycle: 2. • Minimum test time: 30 min. • Maximum test time: 2 hours. • Waiting for balance: 98%.

[7] = Solubility in biological media SGF, FaSSIF and FeSSIF; type: physicochemical; conditions: for solubility at 0.5 h / solubility at 2 h / Solubility: 37° C.
Method: Compared with other crystalline forms, crystalline forms I, III and V show good solid properties, so their solubility was tested respectively.
10 mg of the sample was weighed, and then 2.0 mL of biological media buffer (i.e. the target concentration is 5 mg/mL) was added to form a suspension. The mixture was put in a constant temperature water bath shaker (37° C., 100 rpm), and sampled 500 μL at 0.5, 2 and 24 hours respectively. After filtration, the pH value and HPLC concentration of filtrate were tested respectively, and the solid sample obtained by filtration was tested by XRPD.

[8] = Water activity experiment (slurry in acetone/water); type: physicochemical; conditions: three days
Method: Water activity experiment was carried out. Crystalline forms I and V ([…]) were slurried in a mixed solvent in acetone/water with different water contents at room temperature and 60° C. for three days, and after three days, solid sample was filtered to test XRPD, and the experimental results are as shown in Table 4.

[9] = Solid form change on dehydration, drying or ambient humidity (XRPD); type: physicochemical
Source text: Combined with DSC and TGA pattern, it can be seen that the product is hydrate with about 0.34 water molecules.

[10] = 63 mg/kg oral, 40 minutes before ATP-citric acid exposure

COc1ccc2c(c1)[C@]13CCCC[C@@H]1[C@H](C2)N(C)CC3 [Dextromethorphan, dextromethorphan, reference compound]
Cough suppression rate vs Vehicle [1, 10]: 61.60% | Coughing times in 10 min [1, 10]: 8.00 | effect on number of coughs compared with the vehicle group, in words ([1]; guinea pig, in vivo): significantly reduce the number of coughs

COC(=O)N1CCO[C@@H](Cc2c(-c3c(F)cc(S(N)(=O)=O)cc3F)nc3cc(Cl)ccn23)C1 [Crystalline form V, methyl (S)-2-((7-chloro-2-(2,6-difluoro-4-sulfamoylphenyl)imidazo[1,2-a]pyridin-3-yl)methyl)morpholine-4-carboxylate]
AUClast [2]: 2637.43 ng·h/mL | Cmax [2]: 170.43 ng/mL | F [2]: 11.7% | MRTlast [2]: 10.39 h | T1/2 [2]: 44.35 h | Tmax [2]: 4.67 h | relative stability inferred from competitive slurrying and water activity tests [3]: stable at high temperature (60° C.) in water | mutual crystal transformation in solid state [4]: no mutual crystal transformation trend | Initial purity (Peak area %) ([5]; 0 days): 99.29 peak area % | Purity -7 days (peak area %) ([5]; 40° C./75% RH (open)): 99.28 peak area % | XRPD ([5]; 40° C./75% RH (open)): Constant | stability conclusion in words ([5]; 40° C./75% RH and 60° C., seven days): good physical and chemical stability | Purity -7 days (peak area %) ([5]; 60° C. (covered)): 99.30 peak area % | XRPD ([5]; 60° C. (covered)): Constant | XRPD before and after the DVS test [6]: no obvious change in the XRPD | hygroscopicity (DVS) ([6]; 80% RH, 25° C.): 0.7% | solubility at 0.5 h ([7]; FaSSIF, 37 °C, fassif, thermodynamic from solid, FaSSIF, 0.5 h, read-out: Solubility): 30 µg/mL (≈ 59.9 µM) | solubility at 2 h ([7]; FaSSIF, 37 °C, fassif, thermodynamic from solid, FaSSIF, 2 h, read-out: Solubility): 34 µg/mL (≈ 67.9 µM) | solubility at 24 h ([7]; FaSSIF, 37 °C, thermodynamic from solid, 24 h): 45 µg/mL (≈ 89.8 µM) | XRPD of remaining solid ([7]; FaSSIF, 0.5 h): Unchanged | pH of filtrate ([7]; FaSSIF, 0.5 h): 6.4 | XRPD of remaining solid ([7]; FaSSIF, 2 h): Unchanged | pH of filtrate ([7]; FaSSIF, 2 h): 6.4 | XRPD of remaining solid ([7]; FaSSIF, 24 h): Unchanged | pH of filtrate ([7]; FaSSIF, 24 h): 6.4 | XRPD of remaining solid ([7]; FeSSIF, 0.5 h): Unchanged | pH of filtrate ([7]; FeSSIF, 0.5 h): 5.0 | Solubility ([7]; FeSSIF, 0.5 h): 91 µg/mL (≈ 182 µM) | XRPD of remaining solid ([7]; FeSSIF, 2 h): Unchanged | pH of filtrate ([7]; FeSSIF, 2 h): 5.0 | Solubility ([7]; FeSSIF, 2 h): 93 µg/mL (≈ 186 µM) | XRPD of remaining solid ([7]; FeSSIF, 24 h): Unchanged | pH of filtrate ([7]; FeSSIF, 24 h): 5.1 | Solubility ([7]; FeSSIF, 24 h): 121 µg/mL (≈ 242 µM) | solubility at 0.5 h ([7]; SGF, 37 °C, simulated gastric fluid, thermodynamic from solid, SGF, 0.5 h, read-out: Solubility): 4330 µg/mL (≈ 8650 µM) | solubility at 2 h ([7]; SGF, 37 °C, simulated gastric fluid, thermodynamic from solid, SGF, 2 h, read-out: Solubility (visual observation)): > 5000 µg/mL | pH of filtrate ([7]; SGF, 0.5 h): 1.2 | pH of filtrate ([7]; SGF, 2 h): 1.1 | pH of filtrate ([7]; SGF, 24 h): 1.2 | The experimental results (crystalline form) ([8]; water content 10%, 60° C.): Crystalline form VI | The experimental results (crystalline form) ([8]; water content 10%, RT): Crystalline form I | The experimental results (crystalline form) ([8]; water content 50%, 60° C.): Crystalline form IV | The experimental results (crystalline form) ([8]; water content 50%, RT): Crystalline form IV | The experimental results (crystalline form) ([8]; water content 90%, 60° C.): Crystalline form IV | The experimental results (crystalline form) ([8]; water content 90%, RT): Crystalline form IV

COC(=O)N1CCO[C@@H](Cc2c(-c3c(F)cc(S(N)(=O)=O)cc3F)nc3cc(Cl)ccn23)C1 [Crystalline form VI, methyl (S)-2-((7-chloro-2-(2,6-difluoro-4-sulfamoylphenyl)imidazo[1,2-a]pyridin-3-yl)methyl)morpholine-4-carboxylate]
crystalline form after being placed under ambient humidity ([9]; 35% RH, a few minutes): transforms into crystalline form I

COC(=O)N1CCO[C@@H](Cc2c(-c3c(F)cc(S(N)(=O)=O)cc3F)nc3cc(Cl)ccn23)C1 [Crystalline form VIII, methyl (S)-2-((7-chloro-2-(2,6-difluoro-4-sulfamoylphenyl)imidazo[1,2-a]pyridin-3-yl)methyl)morpholine-4-carboxylate]
crystalline form after desolvation by vacuum drying ([9]; vacuum drying at 40° C. for 3 hours): transformed into crystalline form I

COC(=O)N1CCO[C@@H](Cc2c(-c3c(F)cc(S(N)(=O)=O)cc3F)nc3cc(Cl)ccn23)C1 [Crystalline form IV, methyl (S)-2-((7-chloro-2-(2,6-difluoro-4-sulfamoylphenyl)imidazo[1,2-a]pyridin-3-yl)methyl)morpholine-4-carboxylate]
crystalline form after dehydration ([9]; heating to dehydration, then ambient humidity): becomes crystalline form I again
